Test results published in patent US7863408B2, “Body fluid compatible and biocompatible resin” (Asahi Kasei Kabushiki Kaisha, priority 2002, dated 2011).

Assays:
[1] = Solubility in physiological saline; format: physicochemical; conditions: for dissolution of 10 mg compound in 0.1 ml of physiological saline / dissolution ratio in terms of camptothecin: Example 162; for dissolution ratio in terms of camptothecin: physiological saline, 10 mg compound in 0.1 ml
Experimental: 10 mg of each of compounds (203) and (206) was precisely weighed and individually added to 0.1 ml of physiological saline.

Colon 26 tumor cells = assay: Antitumor assay, Colon 26; format: in vivo, mouse; conditions: Balb/C mice, 50 mg/kg in terms of paclitaxel
Experimental: Further, a control solution was prepared by dissolving paclitaxel as such in a mixture of ethanol, Cremophore EL (manufactured and sold by Sigma, U.S.A.) and physiological saline. Thus, two types of solutions, namely, a test sample solution and a control solution were obtained. Six female Balb/C mice (six weeks old) were divided into two groups, each consisting of three mice, and subsequently, a 4% suspension of Colon 26 tumor cells was intradermally transplanted to the flank of each of the mice. […] Each mouse of the other group of the two groups received administration of the control solution, wherein the control solution was administered in the same manner as in the case of the administration of the test sample solution (i.e., the dose of paclitaxel was 50 mg/kg), thereby obtaining a control group of mice. Separately, a group consisting of five female Balb/C mice (six weeks old), which were transplanted with Colon 26 tumor cells in the same manner as mentioned above, was provided. Each of the mice of such group received the administration of only physiological saline in the same manner as in the case of the administration of the test sample solution, to thereby obtain a non-treated group of mice. Each of the above-mentioned administration of the test sample solution, control solution and physiological saline was performed every 4 days, 7 times in total in the above-mentioned manner.
(§1) Evaluation was made of the antitumor activity in terms of the change (with the lapse of time) of the average tumor volume (%). The tumor volume was determined as follows. The major and minor diameters (a and b, respectively) (each in mm) of the tumor were externally measured, and the tumor volume (V) was obtained according to the following formula.
Further, a control solution was prepared by dissolving paclitaxel as such in a mixture of ethanol, Cremophore EL (manufactured and sold by Sigma, U.S.A.) and physiological saline. Thus, five types of solutions, namely, four types of test sample solutions and one control solution were obtained. Twenty-five female Balb/C mice (six weeks old) were divided into five groups, each consisting of five mice, and subsequently, a 4% suspension of Colon 26 tumor cells was intradermally transplanted to the flank of each of the mice. After two days from the transplantation, four groups of the five groups of mice respectively received the administration of the four test sample solutions obtained above, wherein the dose of the compound was 50 mg/kg in terms of paclitaxel. Each mouse of the other group of the five groups received administration of the control solution, wherein the control solution was administered in the same manner as in the case of the administration of the test sample solution (i.e., the dose of paclitaxel was 50 mg/kg), thereby obtaining a control group of mice. Separately, a group consisting of nine female Balb/C mice (six weeks old), which were transplanted with Colon 26 tumor cells in the same manner as mentioned above, was provided. Each of the mice of such group received the administration of only physiological saline in the same manner as in the case of the administration of the test sample solution, to thereby obtain a non-treated group of mice. Each of the above-mentioned administration of the test sample solution, control solution and physiological saline was performed every 7 days, 4 times in total in the above mentioned manner.
as §1, with “volume” for “volume (V)”

B16 melanoma cells = conditions: Example 149; C57BL/6 mice; 50 mg/kg in terms of paclitaxel, tail-vein injection; six days after administration
Experimental: Further, a control solution was prepared by dissolving paclitaxel as such in a mixture of ethanol, Cremophore EL (manufactured and sold by Sigma, U.S.A.) and physiological saline. Thus, two types of solutions, namely, a test sample solution and a control solution were obtained. Twenty-one female C57BL/6 mice (six weeks old) were divided into three groups, each consisting of seven mice, and subsequently, B16 melanoma cells were intradermally transplanted to the groin of each of the mice (5×10^6 cells per mouse). […] Each mouse of the other one group of the three groups received the administration of the control solution, wherein the control solution was administered in substantially the same manner as in the above-mentioned administration of the test sample solution, except that the dose of paclitaxel was 50 mg/kg, thereby obtaining a control group of mice. Separately, a group consisting of thirteen female C57BL/6 mice (six weeks old), which were transplanted with B16 melanoma cells in the same manner as mentioned above, was provided. Each of the mice of such group received the administration of physiological saline, to thereby obtain a non-treated group of mice.

[2] = Example 151, every 7 days, 4 times

## CC(=O)O[C@H]1C(=O)[C@@]2(C)[C@H]([C@H](OC(=O)c3ccccc3)[C@]3(O)C[C@H](OC(=O)[C@H](O)[C@@H](NC(=O)c4ccccc4)c4ccccc4)C(C)=C1C3(C)C)[C@]1(OC(C)=O)CO[C@@H]1C[C@@H]2O [paclitaxel, reference compound]
[1]; Example 145
  dissolution of 1 mg in 10 ml of physiological saline: not able to be completely dissolved
Colon 26 tumor cells; [2]
  order of the magnitudes of the antitumor activity: (177)/(179)>(181)>(183)/paclitaxel

## carboxymethylated polyether-2′-Ala-paclitaxel [(179)]
Colon 26 tumor cells; [2]
  antitumor activity (average tumor volume with time) compared to paclitaxel as such: significantly excellent
  order of the magnitudes of the antitumor activity: (177)/(179)>(181)>(183)/paclitaxel

## carboxymethylated polyether-2′-Gly-Gly-Phe-Gly-paclitaxel [Compound (197)]
Colon 26 tumor cells; Example 150, every 4 days, 7 times
  antitumor activity (average tumor volume with time) compared to paclitaxel as such: significantly excellent
B16 melanoma cells
  antitumor activity (relative average tumor volume) compared to paclitaxel as such: significantly excellent

## carboxymethylated polyether-2′-Gly-paclitaxel [Compound (177)]
Colon 26 tumor cells; [2]
  antitumor activity (average tumor volume with time) compared to paclitaxel as such: significantly excellent
  order of the magnitudes of the antitumor activity: (177)/(179)>(181)>(183)/paclitaxel

## carboxymethylated polyether-2′-Ile-paclitaxel [(183)]
Colon 26 tumor cells; [2]
  order of the magnitudes of the antitumor activity: (177)/(179)>(181)>(183)/paclitaxel

## carboxymethylated polyether-2′-Leu-paclitaxel [(181)]
Colon 26 tumor cells; [2]
  order of the magnitudes of the antitumor activity: (177)/(179)>(181)>(183)/paclitaxel

## carboxymethylated polyether-20-Gly-Gly-Phe-Gly-camptothecin [(206)]
[1]
  dissolution of 10 mg compound in 0.1 ml of physiological saline: completely dissolved
  dissolution ratio in terms of camptothecin: 4.5 mg/mL

## carboxymethylated polyether-20-Gly-camptothecin [Compound (203)]
[1]
  dissolution of 10 mg compound in 0.1 ml of physiological saline: completely dissolved
  dissolution ratio in terms of camptothecin: 3.5 mg/mL
